Measured values reported in the NIST ThermoML archive (doi:10.1016/j.jct.2014.03.001).

Test: mn = molality of the nth substance listed, in mol/kg
Conditions: 84.51 kPa, Liquid; for speed of sound: Frequency=3 MHz, Sing-around technique in a fixed-path interferometer; for mass density: Vibrating tube method

CCCCCCCCCCCCn1cc[n+](C)c1.[Br-] [1-dodecyl-3-methylimidazolium bromide] + O
Conditions | mass density [kg/m3] | speed of sound [m/s]
288.15 K, m1 = 0.00233 | 999.188 | 1467.3
288.15 K, m1 = 0.00278 | 999.209 | 1467.4
288.15 K, m1 = 0.00301 | 999.216 | 1467.5
288.15 K, m1 = 0.00467 | 999.282 | 1467.7
288.15 K, m1 = 0.00501 | 999.296 | 1467.9
288.15 K, m1 = 0.00665 | 999.36 | 1468.4
288.15 K, m1 = 0.00889 | 999.451 | 1469
288.15 K, m1 = 0.00906 | 999.458 | 1469
288.15 K, m1 = 0.01229 | 999.569 | 1469.4
288.15 K, m1 = 0.01511 | 999.659 | 1469.4
288.15 K, m1 = 0.01804 | 999.736 | 1469.5
288.15 K, m1 = 0.02431 | 999.927 | 1469.6
288.15 K, m1 = 0.03042 | 1000.12 | 1469.7
288.15 K, m1 = 0.04595 | 1000.6 | 1470
288.15 K, m1 = 0.06124 | 1001.06 | 1470.2
288.15 K, m1 = 0.07667 | 1001.51 | 1470.5
288.15 K, m1 = 0.098 | 1002.15 | 1471
288.15 K, m1 = 0.1095 | 1002.5 | 1471.1
293.15 K, m1 = 0.00233 | 998.288 | 1483.3
293.15 K, m1 = 0.00278 | 998.306 | 1483.3
293.15 K, m1 = 0.00301 | 998.314 | 1483.4
293.15 K, m1 = 0.00467 | 998.376 | 1483.7
293.15 K, m1 = 0.00501 | 998.39 | 1483.9
293.15 K, m1 = 0.00665 | 998.451 | 1484.2
293.15 K, m1 = 0.00889 | 998.538 | 1484.8
293.15 K, m1 = 0.00906 | 998.544 | 1484.8
293.15 K, m1 = 0.01229 | 998.652 | 1485.1
293.15 K, m1 = 0.01511 | 998.738 | 1485.1
293.15 K, m1 = 0.01804 | 998.815 | 1485.2
293.15 K, m1 = 0.02431 | 998.999 | 1485.2
293.15 K, m1 = 0.03042 | 999.185 | 1485.3
293.15 K, m1 = 0.04595 | 999.641 | 1485.4
293.15 K, m1 = 0.06124 | 1000.09 | 1485.5
293.15 K, m1 = 0.07667 | 1000.53 | 1485.7
293.15 K, m1 = 0.098 | 1001.14 | 1486
293.15 K, m1 = 0.1095 | 1001.48 | 1486.1
298.15 K, m1 = 0.00233 | 997.123 | 1497.4
298.15 K, m1 = 0.00278 | 997.142 | 1497.4
298.15 K, m1 = 0.00301 | 997.148 | 1497.6
298.15 K, m1 = 0.00467 | 997.208 | 1497.8
298.15 K, m1 = 0.00501 | 997.221 | 1497.9
298.15 K, m1 = 0.00665 | 997.28 | 1498.2
298.15 K, m1 = 0.00889 | 997.362 | 1498.8
298.15 K, m1 = 0.00906 | 997.366 | 1498.8
298.15 K, m1 = 0.01229 | 997.472 | 1499.1
298.15 K, m1 = 0.01511 | 997.555 | 1499.1
298.15 K, m1 = 0.01804 | 997.629 | 1499.1
298.15 K, m1 = 0.02431 | 997.806 | 1499.1
298.15 K, m1 = 0.03042 | 997.989 | 1499.1
298.15 K, m1 = 0.04595 | 998.429 | 1499.1
298.15 K, m1 = 0.06124 | 998.861 | 1499
298.15 K, m1 = 0.07667 | 999.288 | 1499.1
298.15 K, m1 = 0.098 | 999.878 | 1499.2
298.15 K, m1 = 0.1095 | 1000.21 | 1499.2
303.15 K, m1 = 0.00233 | 995.721 | 1509.7
303.15 K, m1 = 0.00278 | 995.74 | 1509.7
303.15 K, m1 = 0.00301 | 995.746 | 1509.8
303.15 K, m1 = 0.00467 | 995.801 | 1510
303.15 K, m1 = 0.00501 | 995.814 | 1510
303.15 K, m1 = 0.00665 | 995.873 | 1510.4
303.15 K, m1 = 0.00889 | 995.95 | 1511
303.15 K, m1 = 0.00906 | 995.955 | 1511
303.15 K, m1 = 0.01229 | 996.058 | 1511.2
303.15 K, m1 = 0.01511 | 996.137 | 1511.2
303.15 K, m1 = 0.01804 | 996.207 | 1511.2
303.15 K, m1 = 0.02431 | 996.381 | 1511.1
303.15 K, m1 = 0.03042 | 996.556 | 1511
303.15 K, m1 = 0.04595 | 996.985 | 1510.9
303.15 K, m1 = 0.06124 | 997.402 | 1510.8
303.15 K, m1 = 0.07667 | 997.814 | 1510.7
303.15 K, m1 = 0.098 | 998.386 | 1510.5
303.15 K, m1 = 0.1095 | 998.705 | 1510.5
308.15 K, m1 = 0.00233 | 994.1 | 1520.3
308.15 K, m1 = 0.00278 | 994.121 | 1520.2
308.15 K, m1 = 0.00301 | 994.125 | 1520.4
308.15 K, m1 = 0.00467 | 994.18 | 1520.6
308.15 K, m1 = 0.00501 | 994.193 | 1520.6
308.15 K, m1 = 0.00665 | 994.246 | 1520.9
308.15 K, m1 = 0.00889 | 994.32 | 1521.4
308.15 K, m1 = 0.00906 | 994.325 | 1521.4
308.15 K, m1 = 0.01229 | 994.423 | 1521.7
308.15 K, m1 = 0.01511 | 994.502 | 1521.6
308.15 K, m1 = 0.01804 | 994.571 | 1521.6
308.15 K, m1 = 0.02431 | 994.739 | 1521.5
308.15 K, m1 = 0.03042 | 994.91 | 1521.4
308.15 K, m1 = 0.04595 | 995.323 | 1521.1
308.15 K, m1 = 0.06124 | 995.729 | 1520.8
308.15 K, m1 = 0.07667 | 996.129 | 1520.7
308.15 K, m1 = 0.098 | 996.685 | 1520.3
308.15 K, m1 = 0.1095 | 996.993 | 1520.1
313.15 K, m1 = 0.00233 | 992.28 | 1529.3
313.15 K, m1 = 0.00278 | 992.299 | 1529.3
313.15 K, m1 = 0.00301 | 992.305 | 1529.4
313.15 K, m1 = 0.00467 | 992.357 | 1529.6
313.15 K, m1 = 0.00501 | 992.368 | 1529.6
313.15 K, m1 = 0.00665 | 992.422 | 1529.8
313.15 K, m1 = 0.00889 | 992.489 | 1530.3
313.15 K, m1 = 0.00906 | 992.495 | 1530.3
313.15 K, m1 = 0.01229 | 992.591 | 1530.6
313.15 K, m1 = 0.01511 | 992.671 | 1530.5
313.15 K, m1 = 0.01804 | 992.736 | 1530.5
313.15 K, m1 = 0.02431 | 992.896 | 1530.3
313.15 K, m1 = 0.03042 | 993.064 | 1530.1
313.15 K, m1 = 0.04595 | 993.467 | 1529.7
313.15 K, m1 = 0.06124 | 993.86 | 1529.3
313.15 K, m1 = 0.07667 | 994.248 | 1529
313.15 K, m1 = 0.098 | 994.79 | 1528.5
313.15 K, m1 = 0.1095 | 995.087 | 1528.2
